Measured values published in patent US20250026769A1, “PAPD5 INHIBITORS AND METHODS OF USE THEREOF” (The Children's Medical Center Corporation, priority 2021, published 2025).
Where two headings read alike, the source gives them in different places.

How the values were obtained:
rPAPD5 = molecular target: T1, rPAPD5 (Homo sapiens, UniProt Q8NDF8); assay: differential scanning fluorimetry (DSF) binding and stabilization of rPAPD5; conditions: for ΔTm at 100 µM: 100 μM test compound, read-out: ΔTm at 100 μM; for ΔTm at 1 µM: 1 μM test compound (Table 2a), read-out: ΔTm at 1 μM
T1 construct: made in house
T1 sequence (Q8NDF8 68-698 isoform Q8NDF8-5 limits assumed): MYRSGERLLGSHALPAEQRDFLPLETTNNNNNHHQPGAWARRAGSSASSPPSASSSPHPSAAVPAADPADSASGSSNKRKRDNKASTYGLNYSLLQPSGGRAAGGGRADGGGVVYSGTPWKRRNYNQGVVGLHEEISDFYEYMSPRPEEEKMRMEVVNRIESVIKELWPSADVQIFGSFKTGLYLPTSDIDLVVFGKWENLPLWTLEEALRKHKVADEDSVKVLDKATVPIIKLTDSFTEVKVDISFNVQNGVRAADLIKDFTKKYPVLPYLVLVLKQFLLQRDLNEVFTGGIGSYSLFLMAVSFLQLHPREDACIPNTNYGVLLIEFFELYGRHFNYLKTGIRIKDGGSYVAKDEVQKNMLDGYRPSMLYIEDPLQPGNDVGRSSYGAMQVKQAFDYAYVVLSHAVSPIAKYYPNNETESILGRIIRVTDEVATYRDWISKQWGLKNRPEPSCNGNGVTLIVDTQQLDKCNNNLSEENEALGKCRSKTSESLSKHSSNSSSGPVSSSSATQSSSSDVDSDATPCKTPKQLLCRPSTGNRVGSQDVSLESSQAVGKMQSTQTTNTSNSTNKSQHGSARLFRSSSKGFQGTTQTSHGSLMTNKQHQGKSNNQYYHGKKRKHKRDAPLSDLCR
In short: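 Differential scanning fluorimetry was used to measure how test compounds bind and thermally stabilize rPAPD5. The reaction contained SYPRO orange dye diluted 1:5000 in […] of buffer with […], 25 mM Tris-HCl, 5 mM MgCl2 and 50 mM KCl. ΔTm was calculated relative to a DMSO control.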

[1] = test system: hepatitis B surface antigen (HBSAg) from HepG2.2.15 cells, a hepatitis B virus-expressing cell line; assay: HBsAg ELISA in supernatant of HepG2.2.15 cells; type: cell-based; conditions: HepG2.2.15, 96 h
Protocol: HepG2.2.15 cells, a hepatitis B virus-expressing cell line (Sells, M. A. et al., PNAS, 1987), were plated at 50,000 cells/well in DMEM/F12 media (Gibco) with 10% fetal bovine serum (Omega Scientific) in a 24-well or 96-well plate (Corning), in 2-3 replicates for each test compound/concentration plus controls, and incubated in a humidified 5% CO2 chamber at 37° C. The next day, media was aspirated, cells were washed once with phosphate buffered saline, pH7.4 (Gibco), and 1 mL DMEM/12 media was replaced. Test compounds were added in 3-fold dilutions from up to 100 μM down to 333 pM, with vehicle (dimethylsulfoxide (Sigma)) as a control. After four days of culture in a humidified 5% CO2 chamber at 37° C., plates were spun down in a centrifuge at 300 g for 10 minutes at room temperature. Supernatant from each well was collected and either frozen at −20° C. or used directly for quantitation of hepatitis B surface antigen (HBSAg) in an enzyme-linked immunosorbent assay (ELISA). The supernatant was tested using the HBSAg ELISA kit (Abnova Cat. No KA0286) per the manufacturer's instructions. Results of replicates were averaged and nonlinear curve fitting was used to determine the half maximal inhibitory concentration (IC50) for each test compound.

[2] = test system: TERC 3′ end processing in DC patient iPSCs; assay: TERC 3′ end processing by RACE in DC patient / PARN-mutant iPSCs; type: cell-based, human; conditions: Homo sapiens, iPSC; patient iPSCs; concentration class at which activity is seen; read-out: iPSC-based RACE activity
Protocol: Compound 266A had activity ˜2-logs higher in the in vitro RNA oligoadenylation assay compared to the parental compound cmpd. 1, approximating the activity of RG7834 (FIG. 7). […] 1. Compounds 295A and 296A had activity 2-3 logs higher in DC patient iPSCs, showing TERC maturation at 1 nM, similar to RG7834 (FIG. 6). […] Referring to Table 1D, “+” refers to activity at 1 μM, “++” refers to activity above 1 nM and below 1 μM, and “+++” refers to activity at <1 nM, “ND” refers to not determined.

[3] = 10 μM test compound (Table 2a), read-out: ΔTm at 10 μM

How did the ΔTm at 100 µM (rPAPD5; shift vs DMSO control) turn out when `O=C(O)c1ccccc1Nc1c(-c2ncco2)cnc2ccc(Cl)cc12` [Compound 129A, 2-[(6-chloro-3-oxazol-2-yl-4-quinolyl)amino]benzoic acid] was run?
The ΔTm at 100 µM was over 5 °C.

What about the IC50 [1] of the same compound?
The IC50 was 4.6 µM.

What does the source list for `O=C(O)c1ccccc1Nc1c(-c2ncco2)cnc2ccc(Br)cc12` [Compound 130A]?
ΔTm at 100 µM (rPAPD5; shift vs DMSO control): > 5 °C; IC50 [1]: 8.89 µM

`O=C(O)c1ccccc1Nc1c(NC2CCC(F)(F)CC2)cnc2ccc(Cl)cc12` [Compound 185A, 2-[[6-chloro-3-[(4,4-difluorocyclohexyl)amino]-4-quinolyl]amino]benzoic acid] was tested. Which ΔTm at 100 µM (rPAPD5; shift vs DMSO control) did it give?
Its ΔTm at 100 µM is over 5 °C.

And the IC50 [1]?
Its IC50 is 2.19 µM.

Which results are given for `O=C(O)c1ccccc1Nc1c(C2CCOCC2)cnc2ccc(Cl)cc12` [Compound 204A, 2-[(6-chloro-3-tetrahydropyran-4-yl-4-quinolyl)amino]benzoic acid]?
ΔTm at 100 µM (rPAPD5; shift vs DMSO control): > 5 °C; IC50 [1]: 3.39 µM

Which results are given for `O=C(O)c1ccccc1Nc1c(C2=CCOCC2)cnc2ccc(Cl)cc12` [Compound 204A-INT, 2-[[6-chloro-3-(3,6-dihydro-2H-pyran-4-yl)-4-quinolyl]amino]benzoic acid]?
ΔTm at 100 µM (rPAPD5; shift vs DMSO control): > 5 °C; IC50 [1]: 2.69 µM

How did the ΔTm at 100 µM (rPAPD5; shift vs DMSO control) turn out when `O=C(O)c1ccccc1Nc1c(C2=CCC(F)(F)CC2)cnc2ccc(Cl)cc12` [Compound 205A-INT, 2-[[6-chloro-3-(4,4-difluorocyclohexen-1-yl)-4-quinolyl]amino]benzoic acid] was run?
The ΔTm at 100 µM was over 5 °C.

What about the IC50 [1] of the same compound?
The IC50 was 1.3 µM.

With `O=C(O)c1ccccc1Nc1c(S(=O)(=O)Nc2nn[nH]n2)cnc2ccc(Cl)cc12` [Compound 226A, 2-[[6-chloro-3-(2H-tetrazol-5-ylsulfamoyl)-4-quinolyl]amino]benzoic acid] as the compound, how does the ΔTm at 100 µM (rPAPD5; shift vs DMSO control) read?
The ΔTm at 100 µM was over 5 °C.

And the IC50 [1]?
The IC50 was 9.46 µM.

With `O=C(O)c1ccccc1Nc1c(S(=O)(=O)N2CCOCC2)cnc2ccc(F)cc12` [Compound 233A, 2-[(6-fluoro-3-morpholinosulfonyl-4-quinolyl)amino]benzoic acid] as the compound, how does the ΔTm at 100 µM (rPAPD5; shift vs DMSO control) read?
Its ΔTm at 100 µM is over 5 °C.

And the IC50 [1]?
Its IC50 is 29.1 µM.

`O=C(O)c1cc(F)ccc1Nc1c(S(=O)(=O)N2CCOCC2)cnc2ccc(Cl)cc12` [Compound 267A, 2-[(6-chloro-3-morpholinosulfonyl-4-quinolyl)amino]-5-fluoro-benzoic acid] was tested. Which ΔTm at 100 µM (rPAPD5; shift vs DMSO control) did it give?
Its ΔTm at 100 µM is over 5 °C.

What about the IC50 [1] of the same compound?
Its IC50 is 4.84 µM.

What does the source list for `Cc1ccc(Nc2c(S(=O)(=O)N3CCOCC3)cnc3ccc(Cl)cc23)c(C(=O)O)c1` [Compound 269A, 2-[(6-chloro-3-morpholinosulfonyl-4-quinolyl)amino]-5-methyl-benzoic acid]?
ΔTm at 100 µM (rPAPD5; shift vs DMSO control): > 5 °C; IC50 [1]: 1.68 µM

With `COc1ccc(Nc2c(S(=O)(=O)N3CCOCC3)cnc3ccc(Cl)cc23)c(C(=O)O)c1` [Compound 270A, 2-[(6-chloro-3-morpholinosulfonyl-4-quinolyl)amino]-5-methoxy-benzoic acid] as the compound, how does the ΔTm at 100 µM (rPAPD5; shift vs DMSO control) read?
The ΔTm at 100 µM was over 5 °C.

What about the IC50 [1] of the same compound?
The IC50 was 4.98 µM.

`O=C(O)c1ccccc1Nc1c(C2CCSCC2)cnc2ccc(Cl)cc12` [Compound 298A, 2-[(6-chloro-3-tetrahydrothiopyran-4-yl-4-quinolyl)amino]benzoic acid] was tested. Which ΔTm at 100 µM (rPAPD5; shift vs DMSO control) did it give?
The ΔTm at 100 µM was over 5 °C.

What about the IC50 [1] of the same compound?
The IC50 was 1.75 µM.

Which ΔTm at 100 µM (rPAPD5; shift vs DMSO control) does the source give for `Cc1ccc(Nc2c(-c3ncco3)cnc3ccc(Cl)cc23)c(C(=O)O)c1` [Compound 301A, 2-[(6-chloro-3-oxazol-2-yl-4-quinolyl)amino]-5-methyl-benzoic acid] here?
Its ΔTm at 100 µM is over 5 °C.

And the IC50 [1]?
Its IC50 is 0.942 µM.

Which minimal effective concentration [2] does the source give for `O=C(O)c1cc(Cl)cc(F)c1Nc1c(S(=O)(=O)N2CCSCC2)cnc2ccc(Cl)cc12` [Compound 427A, 5-chloro-2-[(6-chloro-3-thiomorpholinosulfonyl-4-quinolyl)amino]-3-fluoro-benzoic acid] here?
Its minimal effective concentration is 0.001 to 1 µM.

And the ΔTm at 1 µM (rPAPD5)?
The ΔTm at 1 µM was over 5 °C.

And the ΔTm at 10 µM (rPAPD5; [3])?
The ΔTm at 10 µM was over 5 °C.

And the ΔTm at 100 µM (rPAPD5; shift vs DMSO control)?
Its ΔTm at 100 µM is over 5 °C.

What does the source list for `O=C(O)c1cc(Cl)ccc1Nc1c(N2CCC(Cl)(Cl)CC2)cnc2ccc(Cl)cc12` [Compound 430A, 5-chloro-2-[[6-chloro-3-(4,4-dichloro-1-piperidyl)-4-quinolyl]amino]benzoic acid]?
minimal effective concentration [2]: < 0.001 µM; ΔTm at 1 µM (rPAPD5): > 5 °C; ΔTm at 10 µM (rPAPD5; [3]): > 5 °C; ΔTm at 10 µM (rPAPD5; 10 μM test compound, shift vs DMSO control, read-out: ΔTm (Table 2, starred: the compound was tested at 10 μM)): > 5 °C
